Measurements reported in US20130123357A1, “Methods for Providing Enhanced Resveratrol Activity Using 4-Acetoxy-Resveratrol” (BRIGHAM YOUNG UNIVERSITY, priority 2010, published 2013).

Columns and labels:
[1] = system: TGF (transforming growth factor) beta; assay: Gene array qPCR, human dermal equivalent: TGF beta; type: cell-based; conditions: 1.0% 4AR in DMSO, human skin equivalent, 24 hours, mRNA by qPCR
Text: (§1) In this gene array experiment, we examined the ability of 4AR at a one percent concentration in DMSO (where 100% DMSO served as the vehicle) to either stimulate or inhibit several important genes and quantify directly the transcribed messenger RNA (mRNA) levels by Taqman real time PCR. The test material was placed onto a biological barrier (human dermal equivalent) using a MatTek “ready-to-use” in vitro organotypic tissue equivalent, based on well-documented and validated protocols, using the EpiDerm™ Model EPI-200 Kit. The MatTek kits uses normal (non-transformed) donated human cells as the basis for all of its tissue equivalents. These cells are grown (cultured) in standard Millipore Millicell™ Single Well Tissue Culture Plate Inserts at the air liquid interface or ALI. Apical (top) surface of tissue is exposed to air allowing for direct application of test articles. […] Once the 4 AR test material penetrated the human skin barrier equivalent the gene chip was activated and subsequently mRNA levels were quantified and the results represent stimulation or inhibition of a specific gene.
(§2) To investigate the effects of 4AR on the expression of genes associated with the extracellular matrix (ECM) of the skin, qPCR experiments were conducted using the tissue cultures (model system described above) with subsequent quantification of mRNA levels from […] tissue/cells. […]

[2] = Shelf-life stability of the synthesized material; type: physicochemical
Text: The synthetic method described above uses a direct, efficient synthesis at a low cost, and results in improved stability (longer shelf life) where it remains a white crystalline material for over 2 years, as well as higher biological activity (increase absorption, lower dose and longer half-life) with various cosmetic, nutraceuticals (nutritional supplements) and pharmaceutical applications, including (a) anti-aging, anti-oxidant, (b) anti-inflammatory, (c) anti-cancer, (d) neuroprotection (for improved brain health), (e) cardiovascular health, (f) prostate health and (g) skin health, as described below in the following examples.

[3] = system: Tissue inhibitor of metalloproteinases 1; assay: Gene array qPCR, human dermal equivalent: TIMP1; type: cell-based; conditions: 1.0% 4AR in DMSO, human skin equivalent, 24 hours, mRNA by qPCR
Text: as §1, §2

[4] = system: HBEGF (Heparin-binding EGF-like growth factor); assay: Gene array qPCR, human dermal equivalent: HBEGF; type: cell-based; conditions: 1.0% 4AR in DMSO, human skin equivalent, 24 hours, mRNA by qPCR
Text: as §1, §2

[5] = system: Superoxide dismutase 2, mitochondrial; assay: Gene array qPCR, human dermal equivalent: SOD2; type: cell-based; conditions: 1.0% 4AR in DMSO, human skin equivalent, 24 hours, mRNA by qPCR
Text: as §1, §2

[6] = system: PCNA (Proliferating Cell Nuclear Antigen); assay: Gene array qPCR, human dermal equivalent: PCNA; type: cell-based; conditions: 1.0% 4AR in DMSO, human skin equivalent, 24 hours, mRNA by qPCR
Text: as §1, §2

[7] = system: Fos (FBJ murine osteosarcoma viral oncogene); assay: Gene array qPCR, human dermal equivalent: Fos; type: cell-based; conditions: 1.0% 4AR in DMSO, human skin equivalent, 24 hours, mRNA by qPCR
Text: as §1, §2

[8] = system: S100 Calcium binding protein A9; assay: Gene array qPCR, human dermal equivalent: S100 A9; type: cell-based; conditions: 1.0% 4AR in DMSO, human skin equivalent, 24 hours, mRNA by qPCR
Text: as §1, §2

[9] = Body weight gain and food/water intake in rats, 21 days; type: in vivo, adult male Long-Evans rats
Description: Adult male Long-Evans rats were administered 4AR for 21 days. DMSO served as the control and 4AR was dissolved into DMSO at the following concentrations: 5.0 mg/kg body weight, 20.0 mg/kg body weight and 90.0 mg/kg body weight (n=12 per group).
After 10 days of receiving the treatments there was a significant decrease in body weight gain, by an average of approximately 17 grams, in the 90.0 mg/kg vs. the control values (525.0+5.1 vs. 542.1+6.2 grams, respectively. After 20 days on the treatments there was a significant decrease in body weight gain, by approximately 14 grams, in the 20.0 mg/kg vs. control values (566.0+4.7 vs. 551.8+3.7 grams). Finally, there was an even greater significant decrease in body weight gain between the 90.0 mg/kg vs. control values after 20 days on the treatments representing a 54.2 grams decrease (or 566.0+4.7 vs. 511.8+4.1 grams).

Laminin 1B = assay: Gene array qPCR, human dermal equivalent: Laminin 1B; type: cell-based; conditions: 1.0% 4AR in DMSO, human skin equivalent, 24 hours, mRNA by qPCR
Text: as §1, §2

[10] = system: IGF1 (Insulin-like growth factor 1); assay: Gene array qPCR, human dermal equivalent: IGF1; type: cell-based; conditions: 1.0% 4AR in DMSO, human skin equivalent, 24 hours, mRNA by qPCR
Text: as §1, §2

[11] = system: Superoxide dismutase 1, soluble; assay: Gene array qPCR, human dermal equivalent: SOD1; type: cell-based; conditions: 1.0% 4AR in DMSO, human skin equivalent, 24 hours, mRNA by qPCR
Text: as §1, §2

Metallothionein 1 = assay: Gene array qPCR, human dermal equivalent: Metallothionein 1; type: cell-based; conditions: 1.0% 4AR in DMSO, human skin equivalent, 24 hours, mRNA by qPCR
Text: as §1, §2

Desmocollin 1 = assay: Gene array qPCR, human dermal equivalent: Desmocollin 1; type: cell-based; conditions: 1.0% 4AR in DMSO, human skin equivalent, 24 hours, mRNA by qPCR
Text: as §1, §2

[12] = system: TNFRSF1A (Tumor necrosis factor receptor superfamily, member 1A); assay: Gene array qPCR, human dermal equivalent: TNFRSF1A; type: cell-based; conditions: 1.0% 4AR in DMSO, human skin equivalent, 24 hours, mRNA by qPCR
Text: as §1, §2

[13] = system: Procollagen III (alpha 1); assay: Gene array qPCR, human dermal equivalent: Procollagen III; type: cell-based; conditions: 1.0% 4AR in DMSO, human skin equivalent, 24 hours, mRNA by qPCR
Text: as §1, §2

IL-1a (interleukin 1a) = assay: Gene array qPCR, human dermal equivalent: IL-1a; type: cell-based; conditions: 1.0% 4AR in DMSO, human skin equivalent, 24 hours, mRNA by qPCR
Text: as §1, §2

COX 2 (PTGS2) = assay: Gene array qPCR, human dermal equivalent: COX 2; type: cell-based; conditions: 1.0% 4AR in DMSO, human skin equivalent, 24 hours, mRNA by qPCR
Text: as §1, §2

CC(=O)Oc1ccc(C=Cc2cc(O)cc(O)c2)cc1 [4AR, 3,5-dihydroxy-4′-acetoxy stilbene]
TGF beta increased by [1]: 2.0-fold | stability (shelf life): remains a white crystalline material [2]: over 2 years | Tissue inhibitor of metalloproteinases 1 increased by [3]: 2.5-fold | HBEGF increased by [4]: 1.9-fold | Superoxide dismutase 2, mitochondrial increased by [5]: 1.7-fold | PCNA increased by [6]: 5.4-fold with | Fos increased by [7]: 3.4-fold | S100 Calcium binding protein A9 decreased by [8]: 1.6-fold | decrease in body weight gain vs. control ([9]; 20.0 mg/kg, after 20 days): approximately 14 grams | body weight ([9]; 20.0 mg/kg, after 20 days, control 566.0+4.7): 551.8+3.7 grams | decrease in body weight gain vs. control ([9]; 90.0 mg/kg, after 10 days): approximately 17 grams | body weight ([9]; 90.0 mg/kg, after 10 days, control 542.1+6.2): 525.0+5.1 grams | decrease in body weight gain vs. control ([9]; 90.0 mg/kg, after 20 days): 54.2 grams | body weight ([9]; 90.0 mg/kg, after 20 days, control 566.0+4.7): 511.8+4.1 grams | food/water intake among the treatment groups ([9]; 5.0, 20.0 and 90.0 mg/kg body weight, 21 days, vs DMSO control): no significant differences | Laminin 1B increased by (Laminin 1B): 1.4-fold with | IGF1 increased by [10]: 2.6-fold | Superoxide dismutase 1, soluble increased by [11]: 1.6-fold | Metallothionein 1 increased by (Metallothionein 1): 64.0-fold | Desmocollin 1 decreased by (Desmocollin 1): by 2.4-fold | TNFRSF1A decreased by [12]: 1.4-fold | Procollagen III increased by [13]: by 2.2-fold | IL-1a decreased by (IL-1a (interleukin 1a)): 10.1-fold | COX 2 decreased by (COX 2 (PTGS2)): 1.7-fold
